{"source": "patent US10233182B2", "about": "“Substituted spirocyclic inhibitors of autotaxin” (X-Rx, Inc., priority 2014, dated 2019)", "target": "Autotaxin (Homo sapiens (Human), UniProt Q13822)", "assay": "Autotaxin LPC Cascade Assay", "type": "biochemical", "settings": "Autotaxin 5 nM, LPC 100 μM, choline oxidase/HRP/Ampliflu Red fluorescence read-out, 2% DMSO, RT; read-out: IC50 ATX Activity", "protocol": "Autotaxin LPC Cascade Assay:\nHA130 and Test Compounds:\nPrepare a 1 mM stock of HA130 and a 3 mM stock of each compound in 100% DMSO. Perform a 1:3 serial dilution in DMSO (transfer 5 l of compound to 10 l of DMSO). Add 240 l of buffer to generate a top working concentration of 40 µM (HA130) and 120 µM (test compound) in 4% DMSO.\nAmpliflu Red—Prepare a stock of 5 mM from 100 mM in 100% DMSO. Further dilute to a working concentration of 400 μM in buffer (8% DMSO).\nTogether with compound this yields a 2% DMSO final concentration.\nCholine Oxidase/HRP—0.8 U/mL CO and 8 U/mL HRP.\nIncubate for 10 mins at RT. Add 5 µl of LPC and incubate for 1 hr on the plate shaker. Prepare the CO/HRP and AR immediately prior to use. Add 2.5 l of CO/HRP and follow with 2.5 l AR. Note order of addition, CO/HRP mix before AR. Read fluorescence intensity (ex/em: 530/590 nm) kinetically for 30 min at RT on the Tecan M1000."}
{"compound": "CCc1ccc(F)c(C(=O)N[C@@H](C(=O)N2CCC3(CC2)C(=O)N(C)C(=O)N3c2ccc3[nH]ncc3c2)C(C)C)c1", "note": "[Example 55, (R)—N-(1-(1-(1H-Indazol-5-yl)-3-methyl-2,4-dioxo-1,3,8-triazaspiro[4.5]decan-8-yl)-3-methyl-1-oxobutan-2-yl)-5-ethyl-2-fluorobenzamide]", "values": [{"measurement": "IC50", "result": "< 500", "unit": "nM"}]}
{"compound": "[2H]c1ccc(N2C(=O)N(C)C(=O)C23CCN(C(=O)[C@H](NC(=O)c2cc(C(F)(F)F)ccc2F)C(C)C)CC3)cc1", "note": "[Example 190]", "values": [{"measurement": "IC50", "result": "< 500", "unit": "nM"}]}
{"compound": "CC(C)[C@@H](NC(=O)C12CC3CC(CC(C3)C1)C2)C(=O)N1CCC2(CC1)C(=O)N(C)C(=O)N2c1ccc2[nH]ncc2c1", "note": "[Example 67, (R)—N-(1-(1-(1H-Indazol-5-yl)-3-methyl-2,4-dioxo-1,3,8-triazaspiro[4.5]decan-8-yl)-3-methyl-1-oxobutan-2-yl)-1-admantanecarboxly amide]", "values": [{"measurement": "IC50", "result": "≥ 1000", "unit": "nM"}]}
{"compound": "Cc1ccc(N2C(=O)N(C)C(=O)C23CCN(C(=O)[C@H](NC(=O)c2cc(C(F)(F)F)ccc2F)C(C)C)CC3)cc1", "note": "[Example 184, (R)-2-Fluoro-N-(3-methyl-1-(3-methyl-2,4-dioxo-1-p-tolyl-1,3,8-triazaspiro[4.5]decan-8-yl)-1-oxobutan-2-yl)-5-(trifluoromethyl)benzamide]", "values": [{"measurement": "IC50", "result": "< 500", "unit": "nM"}]}
{"compound": "CC(C)[C@@H](NC(=O)c1cc(OC(F)(F)F)ccc1F)C(=O)N1CCC2(CC1)C(=O)N(C)C(=O)N2c1ccc2[nH]ncc2c1", "note": "[Example 62, (R)—N-(1-(1-(1H-Indazol-5-yl)-3-methyl-2,4-dioxo-1,3,8-triazaspiro[4.5]decan-8-yl)-3-methyl-1-oxobutan-2-yl)-2-fluoro-5-(trifluoromethoxy)benzamide]", "values": [{"measurement": "IC50", "result": "< 500", "unit": "nM"}]}
{"compound": "COc1ccc(CN2C(=O)N(C)C(=O)C23CCN(C(=O)[C@H](NC(=O)c2cc(C(F)(F)F)ccc2F)C(C)C)CC3)cc1", "note": "[Example 91, (R)-2-Fluoro-N-(1-(1-(4-methoxybenzyl)-3-methyl-2,4-dioxo-1,3,8-triazaspiro[4.5]decan-8-yl)-3-methyl-1-oxobutan-2-yl)-5-(trifluoromethyl)benzamide]", "values": [{"measurement": "IC50", "result": "< 500", "unit": "nM"}]}
{"compound": "CN1CN(c2ccc(C(=O)O)cc2)C2(CCN(C(=O)[C@H](NC(=O)c3cc(C(F)(F)F)ccc3F)C3CCCC3)CC2)C1=O", "note": "[Example 156, (R)-4-(8-(2-Cyclopentyl-2-(2-fluoro-5-(trifluoromethyl)benzamido)acetyl)-3-methyl-4-oxo-1,3,8-triazaspiro[4.5]decan-1-yl)benzoic Acid]", "values": [{"measurement": "IC50", "result": "< 500", "unit": "nM"}]}
{"compound": "CC(C)[C@@H](NC(=O)C1CCCCC1)C(=O)N1CCC2(CC1)C(=O)N(C)C(=O)N2c1ccc2[nH]ncc2c1", "note": "[Example 230, (R)—N-(1-(1-(1H-Indazol-5-yl)-3-methyl-2,4-dioxo-1,3,8-triazaspiro[4.5]decan-8-yl)-3-methyl-1-oxobutan-2-yl)cyclohexanecarboxamide]", "values": [{"measurement": "IC50", "result": "≥ 1000", "unit": "nM"}]}
{"compound": "CC(=O)N1CC(CN2C(=O)N(C)C(=O)C23CCN(C(=O)[C@H](NC(=O)c2cc(C(F)(F)F)ccc2F)C(C)C)CC3)C1", "note": "[Example 121, (R)—N-(1-(1-((1-Acetylazetidin-3-yl)methyl)-3-methyl-2,4-dioxo-1,3,8-triazaspiro[4.5]decan-8-yl)-3-methyl-1-oxobutan-2-yl)-2-fluoro-5-(trifluoromethyl)benzamide]", "values": [{"measurement": "IC50", "result": "≥ 1000", "unit": "nM"}]}
{"compound": "CC(C)[C@@H](NC(=O)c1cc(C(F)(F)F)ccc1F)C(=O)N1CCC2(CC1)C(=O)N(C)CN2c1ccc(C(=O)O)cc1", "note": "[Example 149, (R)-4-(8-(2-(2-Fluoro-5-(trifluoromethyl)benzamido)-3-methylbutanoyl)-3-methyl-4-oxo-1,3,8-triazaspiro[4.5]decan-1-yl)benzoic Acid]", "values": [{"measurement": "IC50", "result": "< 500", "unit": "nM"}]}
{"compound": "CC(C)[C@@H](NC(=O)c1cc(C(F)(F)F)ccc1F)C(=O)N1CCC2(CC1)C(=O)N(C)C(=O)N2c1cccnc1", "note": "[Example 189, (R)-2-Fluoro-N-(3-methyl-1-(3-methyl-2,4-dioxo-1-(pyridin-3-yl)-1,3,8-triaza-spiro[4.5]decan-8-yl)-1-oxobutan-2-yl)-5-(trifluoromethyl)benzamide]", "values": [{"measurement": "IC50", "result": "500 to 1000", "unit": "nM"}]}
{"compound": "COc1ccc(F)c(C(=O)N[C@@H](C(=O)N2CCC3(CC2)C(=O)N(C)C(=O)N3c2ccc3[nH]ncc3c2)C(C)C)c1", "note": "[Example 63, (R)—N-(1-(1-(1H-Indazol-5-yl)-3-methyl-2,4-dioxo-1,3,8-triazaspiro[4.5]decan-8-yl)-3-methyl-1-oxobutan-2-yl)-2-fluoro-5-methoxybenzamide]", "values": [{"measurement": "IC50", "result": "500 to 1000", "unit": "nM"}]}
{"compound": "CC(C)[C@@H](NC(=O)c1cc(OC(F)(F)F)ccc1F)C(=O)N1CCC2(CC1)C(=O)N(C)CN2c1ccc(C(=O)O)cc1", "note": "[Example 162, (R)-4-(8-(2-(2-Fluoro-5-(trifluoromethoxy)benzamido)-3-methylbutanoyl)-3-methyl-4-oxo-1,3,8-triazaspiro[4.5]decan-1-yl)benzoic Acid]", "values": [{"measurement": "IC50", "result": "< 500", "unit": "nM"}]}
{"compound": "COc1ccc(F)c(CN2C(=O)N(C)C(=O)C23CCN(C(=O)[C@H](NC(=O)c2cc(C(F)(F)F)ccc2F)C(C)C)CC3)c1", "note": "[Example 107, (R)-2-Fluoro-N-(1-(1-(2-fluoro-5-methoxybenzyl)-3-methyl-2,4-dioxo-1,3,8-triazaspiro[4.5]decan-8-yl)-3-methyl-1-oxobutan-2-yl)-5-(trifluoromethyl)benzamide]", "values": [{"measurement": "IC50", "result": "< 500", "unit": "nM"}]}
{"compound": "CC(C)[C@@H](NC(=O)c1cc(C(F)(F)F)ccc1F)C(=O)N1CCC2(CC1)C(=O)N(C)CN2c1ccc(-c2nc[nH]n2)cc1", "note": "[Example 220, (R)—N-(1-(1-(4-(1H-1,2,4-Triazol-3-yl)phenyl)-3-methyl-4-oxo-1,3,8-triazaspiro[4.5]decan-8-yl)-3-methyl-1-oxobutan-2-yl)-2-fluoro-5-(trifluoromethyl)benzamide]", "values": [{"measurement": "IC50", "result": "< 500", "unit": "nM"}]}
{"compound": "COc1ccc(N2CN(C)C(=O)C23CCN(C(=O)[C@H](NC(=O)c2cccc(C)c2)C(C)C)CC3)cc1", "note": "[Example 197, (R)—N-(1-(1-(4-Methoxyphenyl)-3-methyl-4-oxo-1,3,8-triazaspiro[4.5]decan-8-yl)-3-methyl-1-oxobutan-2-yl)-3-methylbenzamide]", "values": [{"measurement": "IC50", "result": "< 500", "unit": "nM"}]}
{"compound": "CN1C(=O)N(Cc2ccc3nccnc3c2)C2(CCN(C(=O)[C@H](NC(=O)c3cc(C(F)(F)F)ccc3F)C3CC3)CC2)C1=O", "note": "[Example 109, (R)—N-(1-Cyclopropyl-2-(3-methyl-2,4-dioxo-1-(quinoxalin-6-ylmethyl)-1,3,8-triazaspiro[4.5]decan-8-yl)-2-oxoethyl)-2-fluoro-5-(trifluoromethyl)benzamide]", "values": [{"measurement": "IC50", "result": "< 500", "unit": "nM"}]}
{"compound": "CC(C)[C@@H](NC(=O)c1cc(C(F)(F)F)ccc1F)C(=O)N1CCC2(CC1)C(=O)N(C)C(=O)N2c1ccc2oc(=O)n(C)c2c1", "note": "[Example 11, (R)-2-Fluoro-N-(3-methyl-1-(3-methyl-1-(3-methyl-2-oxo-2,3-dihydrobenzo[d]oxazol-5-yl)-2,4-dioxo-1,3,8-triazaspiro[4.5]decan-8-yl)-1-oxobutan-2-yl)-5-(trifluoromethyl)benzamide]", "values": [{"measurement": "IC50", "result": "≥ 1000", "unit": "nM"}]}
{"compound": "CC(C)[C@@H](NC(=O)c1cc(C(F)(F)F)ccc1F)C(=O)N1CCC2(CC1)C(=O)N(C)C(=O)N2c1cnc2[nH]ccc2c1", "note": "[Example 20, (R)-2-Fluoro-N-(3-methyl-1-(3-methyl-2,4-dioxo-1-(1H-pyrrolo[2,3-b]pyridin-5-yl)-1,3,8-triazaspiro[4.5]decan-8-yl)-1-oxobutan-2-yl)-5-(trifluoromethyl)benzamide]", "values": [{"measurement": "IC50", "result": "< 500", "unit": "nM"}]}
{"compound": "CC(C)[C@@H](NC(=O)c1cc(C2CC2)ccc1F)C(=O)N1CCC2(CC1)C(=O)N(C)C(=O)N2c1ccc2[nH]ncc2c1", "note": "[Example 54, (R)—N-(1-(1-(1H-Indazol-5-yl)-3-methyl-2,4-dioxo-1,3,8-triazaspiro[4.5]decan-8-yl)-3-methyl-1-oxobutan-2-yl)-5-cyclopropyl-2-fluorobenzamide]", "values": [{"measurement": "IC50", "result": "< 500", "unit": "nM"}]}
{"compound": "Cc1cccc(C(=O)N[C@@H](C(=O)N2CCC3(CC2)C(=O)N(C)CN3c2ccc(C(N)=O)cc2)C(C)C)c1F", "note": "[Example 145, (R)—N-(1-(1-(4-Carbamoylphenyl)-3-methyl-4-oxo-1,3,8-triazaspiro[4.5]decan-8-yl)-3-methyl-1-oxobutan-2-yl)-2-fluoro-3-methylbenzamide]", "values": [{"measurement": "IC50", "result": "500 to 1000", "unit": "nM"}]}
{"compound": "COC(=O)c1ccc(N2C(=O)N(C)C(=O)C23CCN(C(=O)[C@H](NC(=O)c2cc(C(F)(F)F)ccc2F)C(C)C)CC3)cc1", "note": "[Example 221, (R)-Methyl-4-(8-(2-(2-fluoro-5-(trifluoromethyl)benzamido)-3-methylbutanoyl)-3-methyl-2,4-dioxo-1,3,8-triazaspiro[4.5]decan-1-yl)benzoate]", "values": [{"measurement": "IC50", "result": "< 500", "unit": "nM"}]}
{"compound": "CC(C)[C@@H](NC(=O)c1cccc(C(F)(F)F)c1)C(=O)N1CCC2(CC1)C(=O)N(C)C(=O)N2c1ccccc1", "note": "[Example 33, (R)—N-(3-Methyl-1-(3-methyl-2,4-dioxo-1-phenyl-1,3,8-triazaspiro[4.5]decan-8-yl)-1-oxobutan-2-yl)-3-(trifluoromethyl)benzamide]", "values": [{"measurement": "IC50", "result": "500 to 1000", "unit": "nM"}]}
{"compound": "CC(C)CCN1C(=O)N(C)C(=O)C12CCN(C(=O)[C@H](NC(=O)c1cc(C(F)(F)F)ccc1F)C(C)C)CC2", "note": "[Example 124, (R)-2-Fluoro-N-(1-(1-isopentyl-3-methyl-2,4-dioxo-1,3,8-triazaspiro[4.5]decan-8-yl)-3-methyl-1-oxobutan-2-yl)-5-(trifluoromethyl)benzamide]", "values": [{"measurement": "IC50", "result": "< 500", "unit": "nM"}]}
{"compound": "CC(C)[C@@H](NC(=O)c1cc(C(F)(F)F)ccc1F)C(=O)N1CCC2(CC1)C(=O)N(C)C(=O)N2c1ccc(OCC#N)cc1", "note": "[Example 82, (R)—N-(1-(1-(4-(cyanomethoxy)phenyl)-3-methyl-2,4-dioxo-1,3,8-triazaspiro[4.5]decan-8-yl)-3-methyl-1-oxobutan-2-yl)-2-fluoro-5-(trifluoromethyl)benzamide]", "values": [{"measurement": "IC50", "result": "500 to 1000", "unit": "nM"}]}
